Measured values reported in US6355799B1, “Substituted benzene compounds, process for their preparation, and herbicidal and defoliant compositions containing them” (ISK Americas Incorporated, priority 1997, dated 2002).

Assays:
Assay type in all cases: in vivo
[1] = test system: upland rice (Oryza sp., var. Tebonnet, RICE); experiment: Post-emerge test, crop safety; conditions: phytotoxicity rating 0-100 (0 no damage, 100 complete death), 14 days after application
Method in brief: (§1)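 Applied at 15–1000 g ai/ha from acetone in 187 l/ha spray volume. Post-emergence applications included 0.25% v/v non-ionic surfactant and reached plants sown 8–21 days before. Pre-emergence applications were incorporated by surface watering. Efficacy or crop damage was rated on a 0–100 scale after 14 days.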

[2] = test system: field corn (Zea mays L., var. Dekalb 535, CORN); experiment: Post-emerge test, crop safety; conditions: phytotoxicity rating 0-100 (0 no damage, 100 complete death), 14 days after application
Method in brief: as §1

[3] = test system: redroot pigweed (Amaranthus retroflexus, AMARE); experiment: Pre-emerge test, greenhouse herbicide activity screening; conditions: pre-emerge, rated 14 days after application, 0 = no damage, 100 = complete death
Method in brief: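 Sandy loam pots; pre-emerge: sown 1 d pre-spray, surface-watered after, then bottom-watered. Post-emerge: sown 8–21 d before, 2–3 leaf stage, + 0.25% v/v NIS, bottom-watered. Acetone, 187 l/ha track spray, 15–1000 g ai/ha. 0–100 injury score, day 14.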

[4] = test system: barnyardgrass (Echinochloa crus-galli, ECHCG); experiment: as above; conditions: pre-emerge, rated 14 days after application, 0 = no damage, 100 = complete death
Method in brief: as §1

[5] = test system: large crabgrass (Digitaria sanguinalis, DIGSA); experiment: as above; conditions: pre-emerge, rated 14 days after application, 0 = no damage, 100 = complete death
Method in brief: as §1

[6] = test system: green foxtail (Setaria viridis, SETVI); experiment: as above; conditions: pre-emerge, rated 14 days after application, 0 = no damage, 100 = complete death
Method in brief: as §1

[7] = test system: lambsquarters (Chenopodium album, CHEAL); experiment: as above; conditions: pre-emerge, rated 14 days after application, 0 = no damage, 100 = complete death
Method in brief: as §1

[8] = test system: ivyleaf morningglory (Ipomoea hederacea, IPOHE); experiment: as above; conditions: pre-emerge, rated 14 days after application, 0 = no damage, 100 = complete death
Method in brief: as §1

[9] = test system: johnsongrass (Sorghum halepense, SORHA); experiment: as above; conditions: pre-emerge, rated 14 days after application, 0 = no damage, 100 = complete death
Method in brief: as §1

[10] = test system: common ragweed (Ambrosia artemisizfolia L., AMBEL); experiment: as above; conditions: pre-emerge, rated 14 days after application, 0 = no damage, 100 = complete death
Method in brief: as §1

[11] = test system: sicklepod (Cassia obtusifolia, CASOB); experiment: as above; conditions: pre-emerge, rated 14 days after application, 0 = no damage, 100 = complete death
Method in brief: as §1

[12] = test system: velvetleaf (Abutilon theophrasti, ABUTH); experiment: as above; conditions: pre-emerge, rated 14 days after application, 0 = no damage, 100 = complete death
Method in brief: as §1

[13] = test system: upland rice (Oryza sp., var. Tebonnet, RICE); experiment: Pre-emerge test, crop safety; conditions: pre-emerge, rated 14 days after application, 0 = no damage, 100 = complete death
Method in brief: (§2)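 Plants grown in 10 cm pots of sandy loam mix received acetone-dissolved compounds through a moving flat-fan nozzle. Doses ranged from 15 to 1000 g ai/ha. Pre-emerge pots were seeded one day earlier, post-emerge pots 8–21 days earlier. Fourteen days on, each pot was graded 0–100 for damage.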

[14] = test system: field corn (Zea mays L., var. Dekalb 535, CORN); experiment: Pre-emerge test, crop safety; conditions: pre-emerge, rated 14 days after application, 0 = no damage, 100 = complete death
Method in brief: as §2

[15] = test system: barnyardgrass (Echinochloa crus-galli, ECHCG); experiment: Post-emerge test, greenhouse herbicide activity screening; conditions: phytotoxicity rating 0-100 (0 no damage, 100 complete death), 14 days after application
Method in brief: as §2

[16] = test system: large crabgrass (Digitaria sanguinalis, DIGSA); experiment: as above; conditions: phytotoxicity rating 0-100 (0 no damage, 100 complete death), 14 days after application
Method in brief: as §2

[17] = test system: green foxtail (Setaria viridis, SETVI); experiment: as above; conditions: phytotoxicity rating 0-100 (0 no damage, 100 complete death), 14 days after application
Method in brief: as §2

[18] = test system: lambsquarters (Chenopodium album, CHEAL); experiment: as above; conditions: phytotoxicity rating 0-100 (0 no damage, 100 complete death), 14 days after application
Method in brief: as §2

[19] = test system: redroot pigweed (Amaranthus retroflexus, AMARE); experiment: as above; conditions: phytotoxicity rating 0-100 (0 no damage, 100 complete death), 14 days after application
Method in brief: as §2

[20] = test system: ivyleaf morningglory (Ipomoea hederacea, IPOHE); experiment: as above; conditions: phytotoxicity rating 0-100 (0 no damage, 100 complete death), 14 days after application
Method in brief: as §2

[21] = test system: johnsongrass (Sorghum halepense, SORHA); experiment: as above; conditions: phytotoxicity rating 0-100 (0 no damage, 100 complete death), 14 days after application
Method in brief: as §2

[22] = test system: common ragweed (Ambrosia artemisizfolia L., AMBEL); experiment: as above; conditions: phytotoxicity rating 0-100 (0 no damage, 100 complete death), 14 days after application
Method in brief: as §2

[23] = test system: sicklepod (Cassia obtusifolia, CASOB); experiment: as above; conditions: phytotoxicity rating 0-100 (0 no damage, 100 complete death), 14 days after application
Method in brief: as §2

[24] = test system: velvetleaf (Abutilon theophrasti, ABUTH); experiment: as above; conditions: phytotoxicity rating 0-100 (0 no damage, 100 complete death), 14 days after application
Method in brief: as §2

## COc1c(Cl)cc(F)c(-n2c(=O)cc(C(F)(F)F)n(N)c2=O)c1N [Compound 1-13]
[1]; 63 g ai/ha
  Post-emerge Herbicidal Activity RICE (crop damage): 30
[1]; 250 g ai/ha
  Post-emerge Herbicidal Activity RICE (crop damage): 80
[2]; 63 g ai/ha
  Post-emerge Herbicidal Activity CORN (crop damage): 20
[2]; 250 g ai/ha
  Post-emerge Herbicidal Activity CORN (crop damage): 80
[3]; 63 g ai/ha
  Pre-emerge Herbicidal Activity AMARE (phytotoxicity rating, scale 0-100): 100
[3]; 250 g ai/ha
  Pre-emerge Herbicidal Activity AMARE (phytotoxicity rating, scale 0-100): 100
[4]; 63 g ai/ha
  Pre-emerge Herbicidal Activity ECHCG (phytotoxicity rating, scale 0-100): 90
[4]; 250 g ai/ha
  Pre-emerge Herbicidal Activity ECHCG (phytotoxicity rating, scale 0-100): 100
[5]; 63 g ai/ha
  Pre-emerge Herbicidal Activity DIGSA (phytotoxicity rating, scale 0-100): 100
[5]; 250 g ai/ha
  Pre-emerge Herbicidal Activity DIGSA (phytotoxicity rating, scale 0-100): 100
[6]; 63 g ai/ha
  Pre-emerge Herbicidal Activity SETVI (phytotoxicity rating, scale 0-100): 100
[6]; 250 g ai/ha
  Pre-emerge Herbicidal Activity SETVI (phytotoxicity rating, scale 0-100): 100
[7]; 63 g ai/ha
  Pre-emerge Herbicidal Activity CHEAL (phytotoxicity rating, scale 0-100): 100
[7]; 250 g ai/ha
  Pre-emerge Herbicidal Activity CHEAL (phytotoxicity rating, scale 0-100): 100
[8]; 63 g ai/ha
  Pre-emerge Herbicidal Activity IPOHE (phytotoxicity rating, scale 0-100): 100
[8]; 250 g ai/ha
  Pre-emerge Herbicidal Activity IPOHE (phytotoxicity rating, scale 0-100): 100
[9]; 63 g ai/ha
  Pre-emerge Herbicidal Activity SORHA (phytotoxicity rating, scale 0-100): 95
[9]; 250 g ai/ha
  Pre-emerge Herbicidal Activity SORHA (phytotoxicity rating, scale 0-100): 100
[10]; 63 g ai/ha
  Pre-emerge Herbicidal Activity AMBEL (phytotoxicity rating, scale 0-100): 100
[10]; 250 g ai/ha
  Pre-emerge Herbicidal Activity AMBEL (phytotoxicity rating, scale 0-100): 100
[11]; 63 g ai/ha
  Pre-emerge Herbicidal Activity CASOB (phytotoxicity rating, scale 0-100): 80
[11]; 250 g ai/ha
  Pre-emerge Herbicidal Activity CASOB (phytotoxicity rating, scale 0-100): 100
[12]; 63 g ai/ha
  Pre-emerge Herbicidal Activity ABUTH (phytotoxicity rating, scale 0-100): 100
[12]; 250 g ai/ha
  Pre-emerge Herbicidal Activity ABUTH (phytotoxicity rating, scale 0-100): 100
[13]; 63 g ai/ha
  Pre-emerge crop damage RICE (phytotoxicity rating, scale 0-100): 95
[13]; 250 g ai/ha
  Pre-emerge crop damage RICE (phytotoxicity rating, scale 0-100): 100
[14]; 63 g ai/ha
  Pre-emerge crop damage CORN (phytotoxicity rating, scale 0-100): 60
[14]; 250 g ai/ha
  Pre-emerge crop damage CORN (phytotoxicity rating, scale 0-100): 95
[15]; 63 g ai/ha
  Post-emerge Herbicidal Activity ECHCG: 30
[15]; 250 g ai/ha
  Post-emerge Herbicidal Activity ECHCG: 70
[16]; 63 g ai/ha
  Post-emerge Herbicidal Activity DIGSA: 0
[16]; 250 g ai/ha
  Post-emerge Herbicidal Activity DIGSA: 75
[17]; 63 g ai/ha
  Post-emerge Herbicidal Activity SETVI: 30
[17]; 250 g ai/ha
  Post-emerge Herbicidal Activity SETVI: 90
[18]; 63 g ai/ha
  Post-emerge Herbicidal Activity CHEAL: 100
[18]; 250 g ai/ha
  Post-emerge Herbicidal Activity CHEAL: 100
[19]; 63 g ai/ha
  Post-emerge Herbicidal Activity AMARE: 100
[19]; 250 g ai/ha
  Post-emerge Herbicidal Activity AMARE: 100
[20]; 63 g ai/ha
  Post-emerge Herbicidal Activity IPOHE: 100
[20]; 250 g ai/ha
  Post-emerge Herbicidal Activity IPOHE: 100
[21]; 63 g ai/ha
  Post-emerge Herbicidal Activity SORHA: 10
[21]; 250 g ai/ha
  Post-emerge Herbicidal Activity SORHA: 90
[22]; 63 g ai/ha
  Post-emerge Herbicidal Activity AMBEL: 70
[22]; 250 g ai/ha
  Post-emerge Herbicidal Activity AMBEL: 85
[23]; 63 g ai/ha
  Post-emerge Herbicidal Activity CASOB: 30
[23]; 250 g ai/ha
  Post-emerge Herbicidal Activity CASOB: 70
[24]; 63 g ai/ha
  Post-emerge Herbicidal Activity ABUTH: 100
[24]; 250 g ai/ha
  Post-emerge Herbicidal Activity ABUTH: 100
